For experiment [1], the species on record is Rattus norvegicus. The experiment is described as follows: Compound was tested for increase in plasma calcium concentration in rats. In kind it is functional, organism-based.
For experiment [2], the species on record is Rattus norvegicus. The experiment is described as follows: Compound was tested for its ability to stimulate bone calcium resorption in rats at a dose of 12.5 ng/rat. In kind it is functional, organism-based.
The species entered for experiment [3] is Rattus norvegicus. Briefly: Compound was tested for regulation of kidney VDR in rats. In kind it is functional.
For experiment [4], the species on record is Rattus norvegicus. The experiment is described as follows: Compound was tested for its ability to stimulate intestinal calcium absorption relative to 1,25(OH)2D3 in rats at a dose of 100ng/rat, expressed as Ca (serosal) /Ca (mucosal). In kind it is functional.
Experiment [5] is filed under the species Rattus norvegicus. The experiment is described as follows: Compound was tested for its ability to stimulate intestinal calcium absorption relative to 1,25(OH)2D3 in rats at a dose of 200ng/rat, expressed as Ca (serosal) /Ca (mucosal). In kind it is functional.
Experiment [6] is filed under the species Rattus norvegicus. Briefly: Compound was tested for its ability to stimulate intestinal calcium absorption relative to 1,25(OH)2D3 in rats at a dose of 25ng/rat, expressed as Ca (serosal) /Ca (mucosal). In kind it is functional.
The species entered for experiment [7] is Rattus norvegicus. The experiment is described as follows: Compound was tested for its ability to stimulate intestinal calcium absorption relative to 1,25(OH)2D3 in rats at a dose of 50ng/rat, expressed as Ca (serosal) /Ca (mucosal). In kind it is functional.
For experiment [8], the species on record is Rattus norvegicus. The experiment is described as follows: Compound was tested for its ability to stimulate bone calcium resorption in serum relative to 1,25(OH)2D3 in rats at a dose of 100 ng/rat. In kind it is functional, organism-based.
The species entered for experiment [9] is Rattus norvegicus. The experiment is described as follows: Compound was tested for its ability to stimulate bone calcium resorption in serum relative to 1,25(OH)2D3 in rats at a dose of 200 ng/rat. In kind it is functional, organism-based.
Experiment [10] is filed under the species Rattus norvegicus. The experiment is described as follows: Compound was tested for its ability to stimulate bone calcium resorption in serum relative to 1,25(OH)2D3 in rats at a dose of 25 ng/rat. In kind it is functional, organism-based.
The species entered for experiment [11] is Rattus norvegicus. The experiment is described as follows: Compound was tested for its ability to stimulate bone calcium resorption in serum relative to 1,25(OH)2D3 in rats at a dose of 50 ng/rat. In kind it is functional, organism-based.

For the compound `C=C1/C(=C\C=C2/CCC[C@]3(C)[C@@H]([C@H](C)CCCC(C)(C)O)CC[C@@H]23)C[C@@H](O)C[C@@H]1O`, in the experiment filed under Rattus norvegicus [1], the Plasma Ca2+ is 10.6 mg/dL. For the same compound, in the experiment listed under Rattus norvegicus [2], the Serum Ca2+ amounted to 4.6 mg/dL.
In the case of `C=C1/C(=C\C=C2/CCC[C@]3(C)[C@@H]([C@H](C)/C=C/[C@H](CO)C(C)(C)O)CC[C@@H]23)C[C@@H](O)C[C@@H]1O`, in the experiment filed under Rattus norvegicus [3], the “Kidney VDR” value is on record as 249 fM (mg of protein)-1. In addition, the Plasma Ca2+ in the experiment filed under Rattus norvegicus [1] worked out at 10.5 mg/dL. Further, the Ratio in the experiment listed under Rattus norvegicus [4] was 2.22; in the experiment listed under Rattus norvegicus [5], 3.21; in the experiment filed under Rattus norvegicus [6] it was 2.17; in the experiment filed under Rattus norvegicus [7], 2.08. Further, the Serum Ca2+ in the experiment listed under Rattus norvegicus [8] amounted to 3.8 mg/dL; in the experiment listed under Rattus norvegicus [9], 4 mg/dL; in the experiment filed under Rattus norvegicus [10] it was 4.1 mg/dL; in the experiment filed under Rattus norvegicus [11], 4.2 mg/dL.
